Article PMC6244841, “Enhanced Absorption and Growth Inhibition with Amino Acid Monoester Prodrugs of Floxuridine by Targeting hPEPT1 Transporters” (Molecules, 2008)
Marks after values point to notes of the source that are not given here.

How the values were obtained:
[1] = Chemical stability (nonenzymatic hydrolysis) in pH 7.4 phosphate buffer; type: physicochemical; settings: 37°C, mean ± S.D.
Method: (§1) The experiments concerning prodrug stability were performed at 37°C in pH 7.4 phosphate buffers and Caco-2, AsPC-1, and MDCK cell homogenates.
Chemical Stability. The nonenzymatic hydrolysis of the prodrugs was determined as described above, except that each well contained pH 7.4 phosphate buffers (10 mmol/L) instead of cell homogenate.
(§2) The initial rates of hydrolysis were used to obtain the apparent first-order rate constants and to calculate the half-lives. The apparent first-order degradation rate constants of various floxuridine prodrugs at 37°C were determined by plotting the logarithm of prodrug remaining as a function of time. The slopes of these plots are related to the rate constant, k, and given by
(§3) k = 2.303 × slope (log C vs. time) (1)
(§4) The degradation half-lives were then calculated by the equation

[2] = Enzymatic stability in Caco-2 cell homogenates; type: in vitro ADME; settings: for half-life: human, Caco-2, pH 7.4, 37°C, protein 500 μg/mL, mean ± S.D., read-out: Half Life, Homogenates from Caco-2 cells
Method: as §1
(§5) Enzymatic Stability. Confluent Caco-2 cells, AsPC-1 cells, and MDCK cells were rinsed twice with saline. The cells were washed with pH 7.4 phosphate buffer (5 mL, 10 mmol/L), lysed by ultrasonication (Micro ultrasonic cell disrupter Model KT40, Kontes, Vineland, NJ, USA), and pelleted by centrifugation for 5 minutes at 1,000 x g. Protein amount was quantified with the Bio-Rad (Hercules, CA, USA) DC Protein Assay using bovine serum albumin as a standard. The amount of protein was adjusted to 500 μg/mL and hydrolysis reactions were carried out in 96-well plates (Corning). Caco-2, AsPC-1, and MDCK cell suspensions (250 µL) were placed in triplicate wells, the reactions were started with the addition of substrate, and cells were incubated at 37°C for 120 minutes. At the desired time point, sample aliquots (35 µL) were removed and added to acetonitrile (ACN, 150 µL) with 0.1% TFA. The mixtures were filtered with a 0.45 µm filters at 1,000 x g for 10 minutes at 4°C. The filtrate was then analyzed via reverse-phase HPLC.
as §2, §3, §4

[3] = Enzymatic stability in AsPC-1 cell homogenates; type: in vitro ADME; settings: for half-life: human, AsPC-1 cell homogenate, pH 7.4, 37°C, protein 500 μg/mL, mean ± S.D., read-out: Half Life, Homogenates from AsPC-1 cells
Method: as §1, §5, §2, §3, §4

[4] = Enzymatic stability in MDCK cell homogenates; type: in vitro ADME; settings: dog, pH 7.4, 37°C, protein 500 μg/mL, mean ± S.D., read-out: Half Life, Homogenates from MDCK cells
Method: as §1, §5, §2, §3, §4

hPEPT1 [5] = target: T1, hPEPT1 (Homo sapiens, UniProt P46059); assay: [3H]Gly-Sar uptake inhibition in Caco-2 cells; type: cell-based; settings: for IC50: 10 µmol/L Gly-Sar, 30 minutes, mean ± S.D., read-out: IC50 Value, inhibition of Gly-Sar uptake, Caco-2 cell
T1 sequence (P46059 1-708): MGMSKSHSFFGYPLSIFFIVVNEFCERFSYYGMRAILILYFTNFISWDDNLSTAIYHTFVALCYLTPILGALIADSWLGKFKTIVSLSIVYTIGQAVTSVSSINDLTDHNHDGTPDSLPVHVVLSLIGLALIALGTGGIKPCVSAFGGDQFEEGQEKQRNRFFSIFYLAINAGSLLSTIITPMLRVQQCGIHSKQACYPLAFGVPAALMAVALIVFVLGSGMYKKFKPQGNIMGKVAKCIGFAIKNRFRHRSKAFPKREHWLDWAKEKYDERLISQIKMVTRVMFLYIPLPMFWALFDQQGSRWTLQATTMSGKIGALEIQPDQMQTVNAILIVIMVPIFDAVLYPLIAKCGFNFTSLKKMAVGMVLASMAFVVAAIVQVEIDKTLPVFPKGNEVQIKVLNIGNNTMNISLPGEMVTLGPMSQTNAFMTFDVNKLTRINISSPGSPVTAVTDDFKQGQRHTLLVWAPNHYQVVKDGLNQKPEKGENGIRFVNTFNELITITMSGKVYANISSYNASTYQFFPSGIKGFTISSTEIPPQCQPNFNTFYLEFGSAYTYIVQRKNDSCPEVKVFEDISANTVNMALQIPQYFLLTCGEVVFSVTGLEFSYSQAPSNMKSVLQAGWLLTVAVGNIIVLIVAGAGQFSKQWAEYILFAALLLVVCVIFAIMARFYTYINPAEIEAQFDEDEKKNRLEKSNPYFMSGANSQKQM
Method: (§6) Caco-2 cells at nine days post-seeding, and AsPC-1 cells at four days post-seeding were incubated with 10 µmol/L Gly-Sar (9.98 µmol/L Gly-Sar and 0.02 µmol/L [3H]Gly-Sar) along with various prodrug concentrations (5–0.05 mmol/L) for 30 minutes. The cells were washed three times with ice-cold PBS and solubilized with 10 mL of scintillation cocktail (ScintiVerse®, Fisher Scientific, St.Louis, MO, USA). The amount of cell-associated radioactivity was determined by scintillation counting (Beckman LS-9000, Beckman Instruments, Fullerton, CA, USA). The half maximal inhibitory concentration (IC50) values were determined using nonlinear data fitting (GraphPad Prism version 3.0).

hPEPT1 [6] = target: T1, hPEPT1; assay: [3H]Gly-Sar uptake inhibition in AsPC-1 cells; type: cell-based; settings: for IC50: 10 µmol/L Gly-Sar, 30 minutes, mean ± S.D., read-out: IC50 Value, inhibition of Gly-Sar uptake, AsPC-1 cell
Method: as §6

MDCK/hPEPT1 cells = assay: Cell proliferation assay (XTT) in MDCK/hPEPT1 cells; type: cell-based; settings: for GI50: Canis lupus familiaris, MDCK, read-out: GI50, MDCK/hPEPT1
Method: (§7) Cell proliferation studies were conducted with MDCK cells and MDCK cells that express hPEPT1 (MDCK/hPEPT1). The cells were seeded into 96-well plates at 125,000 cells per well and allowed to attach/grow for 24 hours before drug solutions were added. The culture medium (DMEM + 10% fetal bovine serum) was removed and the cells were gently washed once with sterile pH 6.0 uptake buffer. Floxuridine and floxuridine prodrugs were 2-fold serially diluted in pH 6.0 uptake buffer from 4 to 0.25 mmol/L. Buffer alone was used as 100% viability control. The wash buffer was removed and 30 µL drug solution per well was added and incubated at 37°C for 2 hours in the cell incubator. After this time, the drug solutions were removed and the cells were again gently washed twice with sterile uptake buffer. The culture medium was then added to each well after washing. The cells were allowed to recover for 24 hours before evaluating cell viability via 2,3-bis[2-methoxy-4-nitro-5-sulfophenyl]-2H-tetrazolium-5-carboxanilide inner salt (XTT) assays. A mixture (30 µL) containing XTT (1 mg/mL) in sterile DMEM without phenol red and phenazine methosulfate (N-methyldibenzopyrazine methyl sulfate in sterile PBS, 0.383 mg/mL) reagents were added to the cells and incubated at 37°C for 1 hour, after which the absorbance at 450 nm was read. The concentrations required to inhibit cell growth by 50% (GI50) were calculated using GraphPad Prism version 3.0 by nonlinear data fitting.

[7] = Caco-2 permeability study (apical-to-basolateral); settings: relative to 5-FU
MDCK cells = assay: Cell proliferation assay (XTT) in MDCK cells; type: cell-based; settings: Canis lupus familiaris, 2 hours exposure, 24 hours recovery, mean ± S.D.
Method: as §7

[8] = parameters: method as in PMID 16132363; settings: pH 7.4 phosphate buffer, 37°C, mean ± S.D.; ref [40]; cited from earlier work
[9] = relative to 5'-O-L-valyl-floxuridine

Row | SMILES | half-life [1] [min] | half-life [2] [min] | half-life [3] [min] | half-life [4] [min] | IC50 (hPEPT1 [5]) [µM] | IC50 (hPEPT1 [6]) [µM] | Enhancement Factor (ratio of GI50 in MDCK and MDCK/hPEPT1 cells) (MDCK/hPEPT1 cells) | GI50 (MDCK cells) [µM] | GI50 (MDCK/hPEPT1 cells) [µM] | also measured
1 | NCC(=O)OC[C@H]1O[C@@H](n2cc(F)c(=O)[nH]c2=O)C[C@@H]1O [5'-O-L-glycyl-floxuridine] | 85.5 ± 3.2 | 24.1 ± 2 | 27.6 ± 5.8 | 11.2 ± 2 | 2300 ± 600 | 2700 ± 500 |  |  |  | 
2 | O=c1[nH]c(=O)n([C@H]2C[C@H](O)[C@@H](CO)O2)cc1F [Floxuridine, 5-fluoro-2'-deoxyuridine] |  | 5.7 ± 0.3 | 6.4 ± 3.2 | 68.9 ± 12.8 | 7300 ± 1600 | 6300 ± 2300 | 1.00 |  |  | fold higher Caco-2 membrane permeability than 5-FU [7]: 12 fold
3 | CC(C)C[C@H](N)C(=O)OC[C@H]1O[C@@H](n2cc(F)c(=O)[nH]c2=O)C[C@@H]1O [5'-O-L-leucyl-floxuridine] | 77.3 ± 1.2 | 4.8 ± 0.2 | 2 ± 0.1 | 9.2 ± 1.1 | 2000 ± 300 | 2600 ± 200 | 10.09 | 23.5 ± 3 | 2.3 ± 1 | fold more quickly hydrolyzed in AsPC-1 cell homogenates than in Caco-2 cell homogenates ([3]; AsPC-1 vs Caco-2 homogenates): 2.4 fold; fold more quickly hydrolyzed in AsPC-1 cell homogenates than in MDCK cell homogenates ([3]; AsPC-1 vs MDCK homogenates): 4.7 fold; Enhancement Factor (ratio of GI50 in MDCK and MDCK/hPEPT1 cells) (MDCK/hPEPT1 cells; listed as 5ʹ-O-L-leucyl-floxuridine): 10
4 | CC[C@H](C)[C@H](N)C(=O)OC[C@H]1O[C@@H](n2cc(F)c(=O)[nH]c2=O)C[C@@H]1O [5'-O-L-isoleucyl-floxuridine] |  | 192 ± 31.8 | 198 ± 34.1 | 245 ± 18.3 | 700 | 4100 ± 1800 | 18.04 | 186 ± 4.2 | 10.3 ± 2.9 | Enhancement Factor (ratio of GI50 in MDCK and MDCK/hPEPT1 cells) (MDCK/hPEPT1 cells; listed as 5ʹ-O-L-isoleucyl-floxuridine): 18; Half Life, Buffer pH 7.4 [8]: 323.5 ± 1.5^a min
5 | CC(C)[C@H](N)C(=O)OC[C@H]1O[C@@H](n2cc(F)c(=O)[nH]c2=O)C[C@@H]1O [5'-O-L-valyl-floxuridine] | 304 ± 17.8 | 9.4 ± 0.6 | 18.7 ± 6.7 | 74.7 ± 5.3 | 1000 ± 100 | 2900 ± 400 | 5.91 | 127 ± 7.7 | 21.1 ± 4.2 | fold shorter half-life in Caco-2 cell homogenates than in AsPC-1 cell homogenates ([2]; Caco-2 vs AsPC-1 cell homogenates): 2 fold; Enhancement Factor (ratio of GI50 in MDCK and MDCK/hPEPT1 cells) (MDCK/hPEPT1 cells; listed as 5ʹ-O-L-valyl-floxuridine): about 6
6 | CC(C)[C@@H](N)C(=O)OC[C@H]1O[C@@H](n2cc(F)c(=O)[nH]c2=O)C[C@@H]1O [5'-O-D-valyl-floxuridine] | 345 ± 10.2 | 343 ± 120 | 291 ± 48.9 | 312 ± 45.4 | 2600 ± 100 | 4800 ± 1300 | 1.25 | 88.5 ± 2.6 | 71 ± 2.7 | fold less inhibition of the transporters than 5'-O-L-valyl-floxuridine, Caco-2 cells (hPEPT1 [5]; [9]): 2.5 fold; fold less inhibition of the transporters than 5'-O-L-valyl-floxuridine, AsPC-1 cells (hPEPT1 [6]; [9]): 1.6 fold; improvement of cell growth inhibition in MDCK/hPEPT1 cells (MDCK/hPEPT1 cells; MDCK/hPEPT1 vs MDCK): 25%
7 | N[C@@H](Cc1ccccc1)C(=O)OC[C@H]1O[C@@H](n2cc(F)c(=O)[nH]c2=O)C[C@@H]1O [5'-O-L-phenylalanyl-floxuridine] | 222 ± 56.7 | 11.1 ± 9.9 | 11.8 ± 1.7 | 6 ± 0.6 | 2100 ± 100 | 2000 ± 100 | 8.80 | 41.3 ± 3.9 | 4.7 ± 2.4 | fold less stability in cell homogenates compared to pH 7.4 phosphate buffers ([2]; cell homogenates vs pH 7.4 phosphate buffers): 20 fold
